Test [1] has as its system Mouse BFU-Es. The test is described as follows: Primary mouse BFU-E culture assay (cell expansion). Particulars: for potency in stimulating BFU-E expansion: mouse primary cell BFU-E culture assay. In kind it is cell-based. How it is done: Primary mouse BFU-Es were isolated from mouse embryonic day 14.5 (E14.5) fetal liver and cultured in StemSpan serum-free expansion medium, and the numbers of cells formed were counted during culture. BFU-Es were infected with either viruses encoding control shRNA or viruses encoding shRNAs targeting Chrm4, and numbers of GFP+ cells formed during culture were counted. DMSO or 25 mg/kg oxyphenonium bromide was intraperitoneally injected into the hemolysis mouse model, Mx1-cre Srsf2 P95H/WT MDS mouse model, and aging mouse model. Complete blood count (CBC) was performed after compound injection. CREB ChIP-Seq was performed on BFU-Es after culture with 100 μM oxyphenonium bromide for 45 minutes. RNA-Seq was performed in BFU-Es after being cultured with DMSO or oxyphenonium bromide for 3 days.
BFU-Es were isolated from mouse embryonic day 14.5 fetal liver using fluorescence-activated cell sorting (FACS) method previously described (Flygare et al., Blood 117, 3435-3444 (2011)). BFU-Es were cultured in StemSpan SFEM II medium containing rmSCF (100 ng/ml), EPO (2 U/ml), rmIGF-1 (40 ng/ml), dexamethasone (1 nmol/ml or 10 nmol/ml), oxyphenonium bromide ([…]), and orphenadrine citrate (1 μmol/ml).
BFU-Es were isolated from mouse embryonic day 14.5 fetal liver using fluorescence-activated cell sorting (FACS) method. BFU-Es were cultured in StemSpan SFEM II medium containing rmSCF (100 ng/ml), EPO (2 U/ml), rmIGF-1 (40 ng/ml), dexamethasone (1 nM), together with either DMSO, PCS1055 (5 nM), or PD102807 (3 nM). Numbers of cell formed were counted during in vitro culture.
FIGS. 7 and 8 show the results of the primary BFU-E culture assay. […] Highly purified BFU-Es were isolated as lin-Ter-119-CD16/CD32-Sca-1-CD41-c-Kit+CD71/Cd24a^10% low population using the fluorescence-activated cell sorting (FACS) method. BFU-Es were cultured in medium containing rmSCF, EPO, and rmIGF-1, in the presence of PD102807 or Compounds A-K at indicated concentrations.

For test [2], the target named is T1, human recombinant CHRM3 receptor (Homo sapiens, UniProt P20309).
T1 construct: expressed in transfected cells; host or cells: CHO cells (membranes)
T1 sequence (P20309 whole entry): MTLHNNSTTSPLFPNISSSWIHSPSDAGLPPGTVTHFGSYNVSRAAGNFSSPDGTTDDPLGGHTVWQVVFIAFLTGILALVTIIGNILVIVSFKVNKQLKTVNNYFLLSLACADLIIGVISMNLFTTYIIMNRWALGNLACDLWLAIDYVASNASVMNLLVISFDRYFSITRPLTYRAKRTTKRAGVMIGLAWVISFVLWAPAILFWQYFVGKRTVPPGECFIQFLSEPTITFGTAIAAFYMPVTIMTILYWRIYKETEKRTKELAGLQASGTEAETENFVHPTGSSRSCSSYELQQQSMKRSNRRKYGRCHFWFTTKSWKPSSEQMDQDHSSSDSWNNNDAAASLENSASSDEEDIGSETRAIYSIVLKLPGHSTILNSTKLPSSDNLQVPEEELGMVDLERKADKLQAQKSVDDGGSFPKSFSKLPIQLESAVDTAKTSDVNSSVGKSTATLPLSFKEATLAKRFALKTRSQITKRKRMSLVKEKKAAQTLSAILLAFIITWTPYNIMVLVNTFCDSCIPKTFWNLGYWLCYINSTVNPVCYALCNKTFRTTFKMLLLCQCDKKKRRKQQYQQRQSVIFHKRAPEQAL
The test is described as follows: Radioligand binding assay, CHRM3. Conditions: [3H]4-DAMP (0.2 nM), CHO cell membranes, 60 minutes at room temperature; read-out: Ki M3. How it is done: (§1) PD102807 and Compounds A-K at concentrations of 1×10^−9 M, 1×10^−8 M, 1×10^−7 M, 1×10^−6 M, and 1×10^−5 M were tested in standard binding assays with radioligands and cell membranes with receptors. Compound binding was calculated as a percent inhibition of the binding of a radioactively labeled ligand specific for each target, and the Ki values were determined. For CHRM1, the binding assay was performed using [^3H]pirenzepine (2 nM) as a radioligand and membranes of CHO cells with human recombinant CHRM1 receptor. The incubation time was 60 minutes at room temperature. For CHRM2, the binding assay was performed using [^3H]AF-DX 384 (2 nM) as a radioligand and membranes of CHO cells with human recombinant CHRM2 receptor. The incubation time was also 60 minutes at room temperature. For CHRM3, the binding assay was performed using [^3H]4-DAMP (0.2 nM) as a radioligand and membranes of CHO cells with human recombinant CHRM3 receptor. The incubation time was also 60 minutes at room temperature. For CHRM4, the binding assay was performed using [^3H]4-DAMP (0.2 nM) as a radioligand and membranes of CHO cells with human recombinant CHRM4 receptor. The incubation time was also 60 minutes at room temperature. For CHRM5, the binding assay was performed using [^3H]4-DAMP (0.3 nM) as a radioligand and membranes of CHO cells with human recombinant CHRM5 receptor. The incubation time was also 60 minutes at room temperature.

Test [3] addresses T2, CHRM4 (Homo sapiens, UniProt P08173).
T2 sequence (P08173 1-479): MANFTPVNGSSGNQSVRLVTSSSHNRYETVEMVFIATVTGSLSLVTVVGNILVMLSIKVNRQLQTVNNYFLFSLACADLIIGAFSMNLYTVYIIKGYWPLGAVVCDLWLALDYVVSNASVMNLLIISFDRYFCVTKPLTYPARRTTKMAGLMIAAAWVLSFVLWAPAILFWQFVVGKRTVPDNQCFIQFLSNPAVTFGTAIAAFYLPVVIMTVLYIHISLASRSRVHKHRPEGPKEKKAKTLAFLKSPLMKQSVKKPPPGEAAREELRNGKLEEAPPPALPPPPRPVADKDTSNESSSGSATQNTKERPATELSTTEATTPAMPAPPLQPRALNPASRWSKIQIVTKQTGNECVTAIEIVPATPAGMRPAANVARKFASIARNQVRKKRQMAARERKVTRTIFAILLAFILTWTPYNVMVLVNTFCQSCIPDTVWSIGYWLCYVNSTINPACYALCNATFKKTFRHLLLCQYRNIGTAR
The test is described as follows: Radioligand binding assay, CHRM4. More on the design: expressed in transfected cells; host or cells: CHO cells (membranes). Conditions: [3H]4-DAMP (0.2 nM), CHO cell membranes, 60 minutes at room temperature; read-out: Ki M4. How it is done: as §1

Test [4] addresses T3, human recombinant CHRM2 receptor (Homo sapiens, UniProt P08172).
T3 construct: expressed in transfected cells; host or cells: CHO cells (membranes)
T3 sequence (P08172 1-466): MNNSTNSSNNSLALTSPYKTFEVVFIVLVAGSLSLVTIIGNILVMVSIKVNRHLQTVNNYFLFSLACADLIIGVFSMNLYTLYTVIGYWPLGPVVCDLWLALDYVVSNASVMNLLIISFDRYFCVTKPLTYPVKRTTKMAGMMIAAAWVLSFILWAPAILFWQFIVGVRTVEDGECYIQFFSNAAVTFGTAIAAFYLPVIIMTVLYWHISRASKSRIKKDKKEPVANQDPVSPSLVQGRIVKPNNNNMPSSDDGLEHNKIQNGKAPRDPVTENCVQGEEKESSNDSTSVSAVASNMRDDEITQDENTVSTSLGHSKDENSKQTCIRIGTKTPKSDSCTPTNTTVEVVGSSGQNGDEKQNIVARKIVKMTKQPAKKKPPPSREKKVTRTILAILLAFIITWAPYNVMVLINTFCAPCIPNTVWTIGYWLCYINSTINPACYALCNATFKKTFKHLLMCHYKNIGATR
In words: Radioligand binding assay, CHRM2. Particulars: [3H]AF-DX 384 (2 nM), CHO cell membranes, 60 minutes at room temperature; read-out: Ki M2. How it is done:
as §1

The target of test [5] is T4, human recombinant CHRM1 receptor (Homo sapiens, UniProt P11229).
T4 construct: expressed in transfected cells; host or cells: CHO cells (membranes)
T4 sequence (P11229 1-460): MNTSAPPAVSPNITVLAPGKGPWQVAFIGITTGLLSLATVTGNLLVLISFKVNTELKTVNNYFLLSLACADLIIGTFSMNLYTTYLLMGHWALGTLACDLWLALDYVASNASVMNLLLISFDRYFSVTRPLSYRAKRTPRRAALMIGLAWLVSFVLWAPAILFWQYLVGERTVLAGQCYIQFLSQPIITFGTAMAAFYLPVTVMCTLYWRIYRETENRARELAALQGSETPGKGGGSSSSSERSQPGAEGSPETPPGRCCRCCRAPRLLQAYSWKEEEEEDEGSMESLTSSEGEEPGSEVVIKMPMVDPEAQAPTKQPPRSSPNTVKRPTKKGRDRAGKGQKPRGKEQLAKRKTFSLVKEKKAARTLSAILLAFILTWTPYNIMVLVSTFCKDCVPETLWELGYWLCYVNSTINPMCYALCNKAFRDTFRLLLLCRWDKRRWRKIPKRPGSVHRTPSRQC
The test is described as follows: Radioligand binding assay, CHRM1. Particulars: [3H]pirenzepine (2 nM), CHO cell membranes, 60 minutes at room temperature; read-out: Ki M1. As for the experimental part:
as §1

Test [6] relates to PHZ induced hemolytic anemia in C57bl/6 mice. The test is described as follows: PHZ induced hemolytic anemia mouse model, CBC. In kind it is in vivo. Particulars: subcutaneous injection; B 1.5, 3 or 5 mg/kg; I 0.5, 0.7 or 1 mg/kg; 60 mg/kg phenylhydrazine. As for the experimental part:
Animal experiments were conducted in the Cold Spring Harbor Laboratory Animal Shared Resource in accordance with Institutional Animal Care and Use Committee-approved procedures. 4-6 weeks old C57bl/6 mice, purchased from Jackson Laboratory and randomly distributed into compound and control treatment groups, were given through oral delivery of PCS1055 (50 mg/kg or 100 mg/kg) twice per day or PD102807 (50 mg/kg or 100 mg/kg) once per day everyday for 3 days. On day 3, mice were intraperitoneally injected with 60 mg/kg PHZ. Mice were then given through oral delivery of PD102807 (50 mg/kg or 100 mg/kg) once per day every day for 2 days. Peripheral blood samples were collected retro-orbitally on day 6 using heparinized capillary tubes in blood collection tubes with K2-EDTA. CBC was performed using Hemavet 950. […] C57bl/6 mice were injected with 60 mg/kg phenylhydrazine to induce hemolysis. Mice were delivered with either vehicle control or Compound A or B (30 mg/kg or 100 mg/kg). Peripheral blood samples were collected retro-orbitally using heparinized capillary tubes into blood collection tubes with K2-EDTA. Complete blood counting was performed using Hemavet 950. Hematocrit (HCT), red blood cell (RBC) and hemoglobin (Hb) values are shown. […] C57bl/6 mice were injected with 60 mg/kg phenylhydrazine to induce hemolysis. Mice were delivered with subcutaneous injection with either vehicle control or Compound B (1.5 mg/kg, 3 mg/kg, or 5 mg/kg) or I (0.5 mg/kg, 0.7 mg/kg, or 1 mg/kg). Peripheral blood samples were collected retro-orbitally using heparinized capillary tubes into blood collection tubes with K2-EDTA. Complete blood counting was performed using Hemavet 950. Hematocrit (HCT), red blood cell (RBC) and hemoglobin (Hb) values are shown.

Each structure is given as a SMILES string. Structures can show the parent of a compound that is named as a salt.

In the case of `CCCCCCOC(=O)[C@]1(O)C[C@@H]2O[C@@]1(C)n1c3ccccc3c3c4c(c5c6ccccc6n2c5c31)C(=O)NC4` [KT5720], the fold cell expansion result in test [1] (5 μM KT5720 (with 3 nM PD102807), day 9, vs untreated) was “significantly reduced fold cell expansion”.

A word on the Ki: it is the dissociation constant of the complex between target and ligand, obtained from inhibition or displacement. Consider `CCOC(=O)c1c(C)n(C)c2ccc(OC)c(CN3CCc4cc(OC)ccc4C3)c12` [F], for which the Ki turned out to be 3900 nM in test [2], 950 nM in test [3] and 3900 nM in test [4]. For the same compound, the “potency in stimulating BFU-E expansion” value in test [1] is recorded as “slightly less potent than the others”.

As to `CCOC(=O)c1c(C)n(C)c2ccc(O)c(CN3CCc4cc(OC)ccc4C3)c12` [Compound D, Ethyl 5-hydroxy-4-((6-methoxy-3,4-dihydroisoquinolin-2(1H)-yl)methyl)-1,2-dimethyl-1H-indole-3-carboxylate], the Ki came to 740 nM in test [2], 42 nM in test [3], 280 nM in test [5] and 59 nM in test [4].

Turning to `CCOC(=O)c1c(C)n(C)c2cc(CN3CCc4cc(OC)ccc4C3)c(OC)cc12` [J], the Ki stood at 1700 nM in test [2], 8.9 nM in test [3], 1300 nM in test [5] and 750 nM in test [4].

Turning to `Cc1ccccc1C(OCCN(C)C)c1ccccc1` (stereo not drawn) [orphenadrine citrate], in test [1] (mouse BFU-E culture), the “BFU-E expansion (test of GPCR agonists and antagonists)” value was “triggered BFU-E expansion”.

On to `CCOC(=O)c1c(C)n(C)c2ccc3c(c12)CN1CCc2cc(OC)ccc2C1O3` (stereo not drawn) [Compound C, Ethyl 9-methoxy-2,3-dimethyl-3,6a,11,14-tetrahydro-12H-indolo[4′,5′:5,6][1,3]oxazino[2,3-a]isoquinoline-1-carboxylate], for which the Ki worked out at 600 nM in test [2], 4.6 nM in test [3], 5200 nM in test [5] and 850 nM in test [4].

For `CCOC(=O)c1c(C)[nH]c2ccc(OC)c(CN3CCc4cc(OC)ccc4C3)c12` [Compound E, ethyl 5-methoxy-4-((6-methoxy-3,4-dihydroisoquinolin-2(1H)-yl)methyl)-2-methyl-1H-indole-3-carboxylate], the inhibition constant (Ki) in test [3] turned out to be 1500 nM; in test [5] it was 8500 nM; in test [4], 2600 nM.

For `CCOC(=O)c1c(C)[nH]c2ccc3c(c12)C[N+]1(C)CCc2cc(OC)ccc2C1O3` (single isomer, unassigned) [Compound B, 1-(ethoxycarbonyl)-9-methoxy-2,13-dimethyl-3,6a,11,12,13,14-hexahydroindolo[4′,5′:5,6][1,3]oxazino[2,3-a]isoquinolin-13-ium Iodide], in test [3], the Ki worked out at 4300 nM. Further, the “potency in stimulating BFU-E expansion” value in test [1] is reported as “slightly less potent than the others”. The “treatment of anemia in vivo (HCT, RBC, Hb)” value in test [6] is reported as “treat anemia in vivo”.

Source of the values: patent publication US12497411B2, “Muscarinic acetylcholine receptor subtype 4 antagonists in the treatment of anemia” (COLD SPRING HARBOR LABORATORY, priority 2019, dated 2025).
